Source: patent US6423307B1, “Bioadhesive complexes of polycarbophil and azole antifungal or antiprotozoal drugs” (Farmigea S.p.A., priority 1996, dated 2002)

Assays:
C. albicans ATCC 48867 [1] = experiment: Antifungal assay in solid medium (inhibition halo); assay type: cell-based, Candida albicans
Description: (§1) Two standard American Type Culture Collection (ATCC) strains were used for the assays, i.e. those deposited under the numbers ATCC 48867 and ATCC 23866. Econazole (base) and the econazole-polycarbophil complex were prepared by using different concentrations of the active ingredient depending on the assay requirements, as well as different solvents (i.e. propylene glycol, DMSO), with or without a thickening excipient substance (i.e. hydroxypropylcellulose). The activity of each solvent was also tested, as well as the activity of the excipient and that of polycarbophil alone.
The antifungal activity has been evaluated in an assay in solid medium using Petri dishes containing Sabouraud medium with 2% agar. The dishes were uniformly seeded, with the aid of a sterile pad, with an aqueous suspension containing C. albicans at a density of 2 McFarland. By means of an instrument of 6 mm diameter, incisions were made on the dishes in order to obtain regular cavities in the agar thickness. Each one of the substances under test was placed in one of these cavities, in amounts ranging from 50 to 100 μl. The plates were then incubated for 24 h in a thermostat at 37° C. The antifungal activity was evaluated by measuring the diameter of the inhibition of C. albicans growth around each cavity.
The antifungal assay in solid medium turned out to be a highly sensitive and reproducible assay also for the products under test. At least five separate experiments for evaluating the inhibition halos were carried our for each one of the two different strains and for each one of the compounds examined. Similar results were obtained with each compound in all of the experiments performed.

C. albicans ATCC 23866 = experiment: Susceptibility test in microplate (liquid medium), MIC; assay type: cell-based, Candida albicans; settings: 48 h at 37° C.
Description: as §1
(§2) Stock solutions of econazole (base) and of the econazole-polycarbophil complex were obtained by dissolving the compounds in DMSO at a concentration of 1.5 mg/ml. Two serial 10-fold dilutions in DMSO were made starting from the stock solutions, up to a concentration of 15 μg/ml. From this concentration each compound was subsequently diluted in Yeast Nitrogen Base medium, to which 0.5% glucose and 0.05% bovine albumin had been added. The mixtures were then placed, at different concentrations, in microplate wells (90 μl volume each). 10 μl of a suspension of C. albicans obtained by diluting by {fraction (1/10+L )} a preparation having a turbidity of 2 McFarland were then inoculated in each well. […]

C. albicans ATCC 48867 [2] = experiment: as above; assay type: cell-based, Candida albicans; settings: 48 h at 37° C.
Description: as §1, §2

[3] = test system: Candida albicans, strain ATCC 48867; experiment: Experimental intravaginal infection by Candida albicans in a murine model; assay type: in vivo, CBA/J (H-2^k) mice; settings: for Not improved (% of mice): above 990 colonies; for Not improved (number of mice): vaginal wash 4 hours after dosing, above 990 colonies in 50 μl PBS; for Improved (% of mice) / Improved (number of mice): 100 to 990 colonies in 50 μl PBS; for Cured (number of mice): all cultures negative; for Sensibly improved (% of mice) / Sensibly improved (number of mice): less than 100 colonies in 50 μl PBS
From the text: In the frame of the microbiological experimentation of the products of the invention, the in vivo pharmacological activity of the econazole-polycarbophil complex has also been tested, in comparison with that of econazole (base), in the treatment of an experimental intravaginal infection by Candida albicans, reproduced in a murine model.
Vaginal candidiasis in rodents may be induced only in pseudoestrus conditions (P. L. Fidel, M. E. Lynch, J. D. Sobel, Infection and Immunity, 61 (5), 1993, 1990). For this reason, 72 hours before vaginal inoculation, the CBA/J (H-2^k) mice, described as sensible to such infection (P. L. Fidel, J. L. Cutright, J. D. Sobel, Infection and Immunity, 63 (10), 1995, 4191) were treated with 0.5 mg of estradiol valerate, dissolved in sesame oil, administered by subcutaneous route. The estrogen administration was repeated weekly until completion of the study. Blastoconoids (5×10^5) of Candida albicans, strain ATCC 48867, were inoculated in the vagina of mice previously treated with estrogens. After one week from the inoculation, the infection degree was evaluated by means of vaginal washing and subsequent count of the colony-forming units (CFU) on plates of Sabouraud agar, to which chloramphenicol and gentamicin had been added.
The infected animals were divided into three test groups, each one of which underwent a therapeutic treatment for five subsequent days (from day 1 to day 5). Each therapeutic treatment respectively consisted of: 1) econazole (base) (0.5 wt. % and 1 wt. %); 2) econazole-polycarbophil complex (0.5 wt. % and 1 wt. % calculated as econazole); 3) excipients (control group).
The infection degree was checked before starting the treatment and at the end thereof (day 6). […] The statistical evaluation of the results was made by means of the χ^2 test.

[4] = 0.5 wt. % econazole, 5 days, checked day 6

## Clc1ccc(COC(Cn2ccnc2)c2ccc(Cl)cc2Cl)cc1 (stereo not shown) [econazole (base), 1-{2-[(4-chlorophenyl)methoxy]-2-(2,4-dichlorophenyl)ethyl}-1H-imidazole]
C. albicans ATCC 48867 [1]; Concentration 3 × 10^−2 %, preparation with HPC
  Diameter of inhibition halo: 31.2 ± 0.84 mm
C. albicans ATCC 48867 [1]; Concentration 3 × 10^−2 %, preparation without HPC
  Diameter of inhibition halo: 31.2 ± 0.84 mm
C. albicans ATCC 48867 [1]; Concentration 3 × 10^−3 %, preparation with HPC
  Diameter of inhibition halo: 29.4 ± 0.89 mm
C. albicans ATCC 48867 [1]; Concentration 3 × 10^−3 %, preparation without HPC
  Diameter of inhibition halo: 28.6 ± 0.55 mm
C. albicans ATCC 48867 [1]; Concentration 3 × 10^−4 %, preparation with HPC
  Diameter of inhibition halo: 20.8 ± 1.30 mm
C. albicans ATCC 48867 [1]; Concentration 3 × 10^−4 %, preparation without HPC
  Diameter of inhibition halo: 20.2 ± 1.09 mm
C. albicans ATCC 48867 [1]; Concentration 3 × 10^−5 %, preparation with HPC
  Diameter of inhibition halo: 13.0 ± 1.00 mm
C. albicans ATCC 48867 [1]; Concentration 3 × 10^−5 %, preparation without HPC
  Diameter of inhibition halo: 12.4 ± 0.58 mm
C. albicans ATCC 23866
  Minimal inhibitory concentration: 5.6 ± 0.4 μg/ml of econazole
C. albicans ATCC 48867 [2]
  Minimal inhibitory concentration: 5.6 ± 0.3 μg/ml of econazole
[3]; [4]
  Not improved (% of mice): 11.11%
  Not improved (number of mice): 1
[3]; 0.5 wt. % econazole
  Improved (% of mice): 66.66%
  Improved (number of mice): 6
  Cured (number of mice): 0
  Sensibly improved (% of mice): 22.22%
  Sensibly improved (number of mice): 2
[3]; 1 wt. % econazole, 5 days, checked day 6
  Not improved (number of mice): 3
[3]; 1 wt. % econazole
  Improved (% of mice): 56.25%
  Improved (number of mice): 9
  Not improved (% of mice): 18.75%
  Cured (number of mice): 0
  Sensibly improved (% of mice): 25.00%
  Sensibly improved (number of mice): 4
[3]; 1 wt. % econazole, p=0.0131 between groups
  cured animals added to sensibly cured animals (% of mice): 25%
